Results from ChEMBL document CHEMBL1128625, “Synthesis and antibacterial activity of cephalosporins having C-3 catechol-containing (pyridinium-4-thio)-methyl groups” (1995).
≈ marks a conversion by molar mass, not a printed value.

Assays:
Staphylococcus aureus = assay: In vitro antibacterial activity against Staphylococcus aureus FDA 209P bacteria; format: functional
Pseudomonas aeruginosa [1] = assay: In vitro antibacterial activity against Pseudomonas aeruginosa NCTC-10490 bacteria; format: functional
Escherichia coli = assay: In vitro antibacterial activity against Escherichia coli NIHJ JC-2 bacteria; format: functional
Pseudomonas aeruginosa [2] = assay: In vitro antibacterial activity against Pseudomonas aeruginosa ATCC 10145 bacteria; format: functional
Mus musculus [3] = organism: Mus musculus; assay: Challenged dose in mouse infected with Pseudomonas aeruginosa E-2; format: functional
Pseudomonas aeruginosa [4] = assay: In vivo therapeutic efficacy against systemic infections in mice using Pseudomonas aeruginosa E-2 as a test organism
Mus musculus [5] = assay: In vivo therapeutic efficacy against systemic infections in mice using Pseudomonas aeruginosa E-2 as a test organism; format: functional
Mus musculus [6] = assay: In vivo therapeutic efficacy against systemic infections in mice using Pseudomonas aeruginosa E-2 as a test organism.; format: functional

Row | SMILES | MIC (Staphylococcus aureus) | MIC (Pseudomonas aeruginosa [1]) | MIC (Escherichia coli) | MIC (Pseudomonas aeruginosa [2]) | Challenge dose (Mus musculus [3]) | MIC (Pseudomonas aeruginosa [4]) | ED50 (Mus musculus [5]) | ED50 (Mus musculus [6]) | MIC (Mus musculus [6])
1 | CC(C)(O/N=C(\C(=O)N[C@@H]1C(=O)N2C(C(=O)[O-])=C(CSc3cc[n+](CC(=O)c4ccc(O)c(O)c4)cc3)CS[C@H]12)c1csc(N)n1)C(=O)O | 3.13 µg/mL (≈ 4.29 µM) | ≤ 0.025 µg/mL | 0.1 µg/mL (≈ 0.137 µM) | 0.05 µg/mL (≈ 0.0686 µM) | – | – | – | – | –
2 | CO/N=C(\C(=O)N[C@@H]1C(=O)N2C(C(=O)[O-])=C(CSc3cc[n+](CC(=O)c4ccc(O)c(O)c4)cc3)CS[C@H]12)c1csc(N)n1 | 0.78 µg/mL (≈ 1.19 µM) | 0.05 µg/mL (≈ 0.0761 µM) | 0.1 µg/mL (≈ 0.152 µM) | 0.39 µg/mL (≈ 0.594 µM) | – | – | – | – | –
3 | Nc1nc(/C(=N/OCC(=O)O)C(=O)N[C@@H]2C(=O)N3C(C(=O)[O-])=C(CSc4cc[n+](CC(=O)c5ccc(O)c(O)c5)cc4)CS[C@H]23)cs1 | 3.13 µg/mL (≈ 4.47 µM) | ≤ 0.025 µg/mL | 0.05 µg/mL (≈ 0.0714 µM) | 0.1 µg/mL (≈ 0.143 µM) | 1000000 cells mouse-1 | 0.1 µg/mL (≈ 0.143 µM) | > 20 mg/kg | – | –
4 | CC(C)(O/N=C(\C(=O)N[C@@H]1C(=O)N2C(C(=O)[O-])=C(CSc3cc[n+](Cc4cc(O)c(O)cn4)cc3)CS[C@H]12)c1csc(N)n1)C(=O)O | 6.25 µg/mL (≈ 8.91 µM) | 0.05 µg/mL (≈ 0.0712 µM) | 0.78 µg/mL (≈ 1.11 µM) | 0.39 µg/mL (≈ 0.556 µM) | – | – | – | – | –
5 | CC(C)(O/N=C(\C(=O)N[C@@H]1C(=O)N2C(C(=O)[O-])=C(C[n+]3ccccc3)CS[C@H]12)c1csc(N)n1)C(=O)O [CEFTAZIDIME] | 3.13 µg/mL (≈ 5.73 µM) | 0.78 µg/mL (≈ 1.43 µM) | 0.39 µg/mL (≈ 0.714 µM) | 1.56 µg/mL (≈ 2.85 µM) | 1000000 cells mouse-1 | – | – | 34.4 mg/kg | 1.56 µg/mL (≈ 2.85 µM)
